From patent US20030166542A1, “Systemic immune response induced by mucosal administration of lipid-tailed polypeptides without adjuvant” (INSTITUT PASTEUR, priority 1999, published 2003)
*: point of attachment. Palmitoyl = CCCCCCCCCCCCCCCC(=O)*

Assays:
[1] = test system: P. falciparum sporozoites, liver schizonts, infected RBC; experiment: Immunofluorescent Ab assay (IFAT) of sera from immunized mice against native parasite; type: in vivo
Protocol: FIG. 2: Mucosal immunization elicits parasite-specific antibody responses. Sera were obtained from C3H/HeJ mice at 2weeks post-immunization by either nasal or sub-lingual route and assayed fro recognition of (a) P. falciparum sporozoites and (B) hepatic schizonts in an IFI assay as described in Material and Methods. The data are representative of three independent experiments.
The reactivity of the sera against native proteins from various stages of the parasite were analyzed by IFAT using either (i) P. faciparum NF54 strain sporozoites (a gift of W. Eling), or (ii) sections from liver biopsies containing day 5 P. falciparum liver schizonts, or (iii) day 6 ½ P. falciparum liver schizonts obtained from a Chimpanzee. IFAT-labeled anti-human IgG, -A, -M (Diagnostic Pasteur France) or anti-mouse (Cappel. Wester Chester. Pa.) diluted {fraction (1/ 200)} were employed as second Abs.

C3H/HeJ mice = experiment: Isotype analysis of polypeptide-specific serum antibodies (ELISA); type: in vivo
[2] = test system: spleen and inguinal lymph node cells; experiment: Lymphocyte proliferative assay ((3H)TdR) on spleen and inguinal lymph node cells of immunized mice; type: cell-based
Protocol: FIG. 3: Systemic cellular immune responses are electited by presentation of lipid-tailed polypeptides to the nasal and sub-lingual mucosal surfaces. Groups of five C3H/HeJ mice were administrated with LSA3-NRII lipid-tailed (black bars) or non-lipdated polypeptide (hatched bars) either a) intranasally, b) sub-lingually, or c) subcutaneously. Two weeks after two administrations, cell suspensions from individual spleens were assayed for in vitro proliferation to the recall polypeptide. Results are expressed as Δ cpm. The background cpm, in unstimulated cells were 1548 fro intranasal, 2356 for sub-lingual and 1965 for subcutaneous routs, Bars represent the mean Δ cpm±SD in each group. The data were similar and are representative of three separate experiments.

[3] = test system: T lymphocytes from ganglia sub-mandibulaires; type: cell-based, BALB/c mice

**Q.** How did the “reactivity of induced Abs with infected RBC's by IFAT” value ([1]; different steps of intra-erythrocytic maturation) turn out when “Ac-LEESQVNDDIFNSLVKSVQQEQQHNVK(Pam)NH2 (Ac-LEESQVNDDIFNSLVKSVQQEQQHNVK(Palmitoyl)-NH2; SMILES CCCCCCCCCCCCCCCC(=O)NCCCC[C@H](NC(=O)[C@@H](NC(=O)[C@H](CC(N)=O)NC(=O)[C@H](Cc1c[nH]cn1)NC(=O)[C@H](CCC(N)=O)NC(=O)[C@H](CCC(N)=O)NC(=O)[C@H](CCC(=O)O)NC(=O)[C@H](CCC(N)=O)NC(=O)[C@H](CCC(N)=O)NC(=O)[C@@H](NC(=O)[C@H](CO)NC(=O)[C@H](CCCCN)NC(=O)[C@@H](NC(=O)[C@H](CC(C)C)NC(=O)[C@H](CO)NC(=O)[C@H](CC(N)=O)NC(=O)[C@H](Cc1ccccc1)NC(=O)[C@@H](NC(=O)[C@H](CC(=O)O)NC(=O)[C@H](CC(=O)O)NC(=O)[C@H](CC(N)=O)NC(=O)[C@@H](NC(=O)[C@H](CCC(N)=O)NC(=O)[C@H](CO)NC(=O)[C@H](CCC(=O)O)NC(=O)[C@H](CCC(=O)O)NC(=O)[C@H](CC(C)C)NC(C)=O)C(C)C)[C@@H](C)CC)C(C)C)C(C)C)C(C)C)C(N)=O) [LSA3-NRII lipid-tailed polypeptide, palmitoyl lipid-tailed polypeptide derived from P. falciparum LSA-3]” was run?
**A.** did not react

**Q.** And the “reactivity of induced Abs with intact parasite by IFAT” value ([1]; sporozoite and liver stages, sera of mucosally immunized BALB/c and C3H/HeJ)?
**A.** react with the intact parasite

**Q.** What about the “isotype profile of serum antibody response” value (C3H/HeJ mice; mucosal administration (I.N., S.L.)) of the same substance?
**A.** preferential IgG2a serum antibody response

**Q.** What about the “isotype profile of serum antibody response” value (C3H/HeJ mice; subcutaneous route) of the same substance?
**A.** dominant IgG1 isotype response

**Q.** What about the “proliferative responses against irrelevant polypeptide (LSA1-J)” value ([2]; Ag specificity) of the same substance?
**A.** lack of responses

**Q.** And the “maximal delta cpm, inguinal lymph nodes” value ([2]; S.L.)?
**A.** 16189 cpm

**Q.** And the “proliferative responses in spleen cells to recall polypeptide” value ([2]; S.L. or I.N. application, no mucosal adjuvant, C3H/HeJ)?
**A.** strong proliferative responses

**Q.** And the “phenotype of lymphoproliferative responses (antibody blocking)” value ([2]; after mucosal administration, anti-CD4 / anti-CD8 antibodies)?
**A.** abrogated by antibodies against CD4 but not by anti- CD8 antibodies

**Q.** What about the “proliferative responses, mucosally versus subcutaneously immunized animals” value ([2]; same dose, P<0.05) of the same substance?
**A.** at higher levels compared to subcutaneously immunized animals

**Q.** With “Concanavaline A [CON A, reference compound]” as the substance, how does the “immune response (CFSE shift of fluorescence)” value ([3]; positive control) read?
**A.** maximum immune response

**Q.** With “Nh2-K(NεPam)GRQYIKANSKFIGITERGRILKEPVHGV-COOH [H-K(PAM)TT-pol 476-484]” as the substance, how does the “shift of fluorescence (CFSE)” value [3] read?
**A.** as intense as that provided by positive CON A control
